One assay concerns C. elegans. The assay can be described thus: C. elegans motility assay (effect on avermectin activity, % active worms). Type of assay: in vivo. An excerpt:
1. The C. elegans motility assay:
The procedures for the C. elegans motility assay is described in S. S. Pong et al., J. NuroChem. 34, 351-358, 1980.

Assay [1] concerns benzodiazepine receptors. The conditions noted are these: known from prior art; cited from earlier work.
Assay [2] has as its system benzodiazepine receptors. The assay can be described thus: Benzodiazepine receptor binding assay (BARIN; effect on ^3 H-diazepam binding).

Molecules are shown by their SMILES. Like-named read-outs stand apart in the source and are kept apart here.

As to `CC[C@H](C)[C@H]1O[C@]2(C=C[C@@H]1C)C[C@@H]1C[C@@H](C/C=C(\C)[C@@H](O[C@H]3C[C@H](OC)[C@@H](O[C@H]4C[C@H](OC)[C@@H](O)[C@H](C)O4)[C@H](C)O3)[C@@H](C)/C=C/C=C3\CO[C@@H]4[C@H](O)C(C)=C[C@@H](C(=O)O1)[C@]34O)O2` [avermectin], the “% active worms” value stood at 85% in the assay on C. elegans (isoflavan 0 μg/ml, avermectin 0.156 μg/ml (avermectin alone)); 20% with C. elegans (isoflavan 0 μg/ml, avermectin 0.313 μg/ml (avermectin alone)); 4% in the assay on C. elegans (isoflavan 0 μg/ml, avermectin 0.625 μg/ml (avermectin alone)).
`CCCCNc1c(C(=O)OCC)c(C)nc2c1cnn2CC` [tracazolate]: the “effect on benzodiazepine binding” value in the assay on benzodiazepine receptors [1] is given as “stimulates benzodiazepine binding”.
Consider `COc1cc2c(c(OC)c1CC=C(C)C)CC(c1ccc(O)c(CC=C(C)C)c1O)CO2` (centres unmarked) [3',6-diisopentenyl-2',4'-dihydroxy-5,7-dimethoxyisoflavan], for which, in the assay with benzodiazepine receptors [2], the “effect on benzodiazepine binding” value is recorded as “stimulate the benzodiazepine-binding”. In addition, the EC50 on benzodiazepine receptors [2] (active compound (12 mg, k'=8) isolated from CH2 Cl2 extract of G. uralensis by HPLC) was in the range of 2 to 3 µg/mL. Besides, the “EC50 for stimulation of benzodiazepine-binding” value at benzodiazepine receptors [2] (stimulation of binding) turned out to be 3 µg/mL. In the assay with C. elegans (in vivo), the “antagonism of avermectin in the C. elegans motility assay” value is “potent antagonist of avermectin”. In addition, the “% active worms” value in the assay with C. elegans (isoflavan 5 μg/ml, avermectin 0 μg/ml) came out at 97%; with C. elegans (isoflavan 5 μg/ml, avermectin 0.156 μg/ml), 60%; in the assay on C. elegans (isoflavan 5 μg/ml, avermectin 0.313 μg/ml) it was 60%; in the assay with C. elegans (isoflavan 5 μg/ml, avermectin 0.625 μg/ml) it was 77%; in the assay with C. elegans (isoflavan 25 μg/ml, avermectin 0 μg/ml), 95%; in the assay on C. elegans (isoflavan 25 μg/ml, avermectin 0.156 μg/ml) it was 88%. Also, the “% active worms” value in the assay on C. elegans (isoflavan 25 μg/ml, avermectin 0.313 μg/ml) was 65%; with C. elegans (isoflavan 25 μg/ml, avermectin 0.625 μg/ml), 91%. The “blocking the highest dose of avermectin” value in the assay with C. elegans (lowest dose level 5 μg/ml, avermectin 0.625 μg/ml) is listed as “almost fully effective”.

Values taken from US4639466A, “3',6-diisopentenyl-2',4'-dihydroxy-5,7-dimethoxy-isoflavan and related compounds useful as anxiolytic agents and avermectin antidotes” (Merck & Co., Inc., priority 1984, dated 1987).
